Experimental data: US4960678A, “Photochromic compounds” (Tokuyama Soda Kabushiki Kaisha, priority 1987, dated 1990)

What was measured:
Type in all cases: physicochemical
[1] = Fatigue life of film of fulgimide compound obtained in Example 1 with ultraviolet stabilizer, Example 11; conditions: fulgimide compound obtained in Example 1 (0.2 part) with 0.2 part ultraviolet stabilizer in poly(methyl methacrylate) film; xenon fadeometer
Excerpt: (§1) T1/2 is defined as the time required for the color density to decrease to half of its initial value when the film is exposed to the fadeometer.
(§2) One hundred parts of benzene, 10 parts of poly(methyl methacrylate), 0.2 part of the fulgimide compound obtained in Example 1 and 0.2 part of each of the compounds shown in Table 5 as an ultraviolet stabilizer were mixed to form a solution. The solution was cast on a slide glass (11.2×3.7cm) to form a cast film having a thickness of 0.1 mm.
(§3) The fatigue life of photochromic film was measured as in Example 9 by a xenon long-life fadeometer (FAL-25AX-HC made by Suga Testing Instrument Co., Ltd.).

[2] = Fatigue life of film of fulgimide compound obtained in Example 2 with ultraviolet stabilizer, Example 12; conditions: fulgimide compound obtained in Example 2 (0.2 part) with 0.2 part ultraviolet stabilizer in poly(methyl methacrylate) film; xenon fadeometer
Procedure: as §2, §3
Example 11 was repeated except that the fulgimide compound obtained in Example 2 was used instead of fulgimide compound used in Example 11.

[3] = Fatigue life of film of fulgimide compound obtained in Example 1 with varied amounts of ultraviolet stabilizer, Example 13; conditions: fulgimide compound of Example 1
Procedure: […] The solution was cast on a slide glass (11.2×3.7cm) to form a cast film having a thickness of 0.1 mm.
as §3

[4] = Xenon long-life fadeometer test of photochromic poly(methyl methacrylate) cast film (initial coloration density, T1/2, λmax), Example 9; conditions: poly(methyl methacrylate) cast film 0.1 mm; for Initial color density: initial coloration density (absorbance); for Initial color density / T1/2 (fatigue life): xenon fadeometer; for λmax: maximum absorption wavelength; for T1/2 (fatigue life): time for color density to decrease to half of initial value;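 for Initial color density: 0.5 part by weight compound dispersed with PMMA in 100 parts benzene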
Excerpt: The thickness of the cast film was adjusted to 0.1 mm.
as §1

[5] = Durability test of poly(allyl diglycol carbonate) lens impregnated with compound in silicone oil, Example 10; conditions: for Initial color density / λmax: impregnated from silicone oil; for T1/2: impregnated from silicone oil at 200° C. for 1 hour, xenon fadeometer
Procedure: as §1
The solution was impregnated in the surface of a lens composed of poly(allyl diglycol carbonate) at 200° C. for 1 hour. The concentration of the solution was adjusted to 1.0×10^-4 mole/g.

[6] = Fading speed of poly(methyl methacrylate) cast film after mercury lamp irradiation, Example 9; conditions: mercury lamp 60 seconds at 20°±1° C., time to half absorbance after irradiation stopped
Procedure: The fading speeds of the cast films prepared as above were measured by the following procedure.
The cast film was exposed to a mercury lamp (SHL-100 made by Toshiba Co., Ltd.) at 20°±1° C. for 60 seconds from a distance of 10 cm. Then, the irradiation was stopped, and the fading speed was determined from changes in the absorbance of the cast film measured by a spectrophotometer (220A made by Hitachi Limited). The fading speed is expressed by the time which is required to the absorbance of the cast film to a value half of (the absorbance of the cast film at a maximum absorption wavelength immediately after 60 second irradiation)--(the absorbance of the non-irradiated cast film at the maximum wavelength) after light irradiation for 60 seconds.

[7] = Fatigue life of films of fulgimide or fulgide compounds with Cyasorb UV1084, Example 14; conditions: with Cyasorb UV1084 (0.2 part) as ultraviolet stabilizer in poly(methyl methacrylate) film; xenon fadeometer
[8] = stabilizer amount added 0.002 (1 part per 100 parts by weight of fulgimide)
[9] = stabilizer amount added 0.1 (50 parts per 100 parts by weight of fulgimide)
[10] = stabilizer amount added 0.8 (400 parts per 100 parts by weight of fulgimide)
[11] = stabilizer amount added 20 (10000 parts per 100 parts by weight of fulgimide)

SMILES	Initial color density [4]	λmax [4] [nm]	T1/2 (fatigue life) [4] [h]	also measured
CC(C)(C)CC(C)(C)c1ccc([O-])c(Sc2cc(C(C)(C)CC(C)(C)C)ccc2[O-])c1.CCCCN.[Ni+2] [Cyasorb UV1084]	–	–	–	T1/2 [1]: 152 h; T1/2 [2]: 182 h; T1/2 [3, 8]: 110 h; T1/2 [3, 9]: 140 h; T1/2 [3, 10]: 160 h; T1/2 [3, 11]: 180 h
CC1=C2C(=O)N(CC#N)C(=O)C2C2(c3occc31)C1CC3CC(C1)CC2C3 (stereo not shown) [(28)]	0.9	535	48	Initial color density [5]: 0.72; λmax [5]: 540 nm; T1/2 [5]: 49 h
CN1C(C)(C)CC(OC(=O)CCCCCCCCC(=O)OC2CC(C)(C)N(C)C(C)(C)C2)CC1(C)C [Tinuvin 765]	–	–	–	T1/2 [1]: 159 h; T1/2 [2]: 191 h; T1/2 [3, 8]: 106 h; T1/2 [3, 9]: 152 h; T1/2 [3, 10]: 166 h; T1/2 [3, 11]: 182 h
CC1=C2C(=O)OC(=O)C2C2(CC3CCC2C3)c2sc(Br)cc21 (stereo not shown) [(7)]	0.38	520	15	Fading speed [6]: 21 s
CC1=C2C(=O)N(CC(=O)OCC(C)C)C(=O)C2C2(CC3CCC2C3)c2sc(Br)cc21 (stereo not shown) [(19)]	0.47	520	43	–
CCCCC1=C2C(=O)N(CC(C)(C)CCOC(=O)CBr)C(=O)C2C2(CC3CCC2C3(C)C)c2sc3c(c21)CCCC3 (stereo not shown) [(21)]	0.52	576	36	–
CC1=C2C(=O)N(CCCCC(=O)OCCc3cccc4ccccc34)C(=O)C2C2(c3sccc31)C1CC3CC(C1)CC2C3 (stereo not shown) [(6)]	0.49	538	16	Fading speed [6]: 76 s; T1/2 [7]: 65 h
COC(=O)CN1C(=O)C2=C(C)c3ccsc3C3(C4CC5CC(C4)CC3C5)C2C1=O (stereo not shown) [(1)]	0.62	535	38	Fading speed [6]: 39 s; Initial color density [5]: 0.5; λmax [5]: 540 nm; T1/2 [5]: 40 h
CC1=C2C(=O)N(C[N+](=O)[O-])C(=O)C2C2(c3sc(C)cc31)C1CC3CC(C1)CC2C3 (stereo not shown) [(8)]	0.72	556	30	Initial color density [5]: 0.56; λmax [5]: 562 nm; T1/2 [5]: 32 h
CC(=O)CN1C(=O)C2=C(c3ccccc3)c3cc(-c4ccccc4)sc3C3(C4CC5CC(C4)CC3C5)C2C1=O (stereo not shown) [(10)]	0.58	601	40	Initial color density [5]: 0.47; λmax [5]: 610 nm; T1/2 [5]: 43 h
CCCCC12CC3CC(C1)C1(c4c(n(C)c5ccccc45)C(C)=C4C(=O)N(CC(=O)OCCC#N)C(=O)C41)C(Cl)(C3)C2 (stereo not shown) [(29)]	0.71	576	44	Initial color density [5]: 0.56; λmax [5]: 583 nm; T1/2 [5]: 45 h
CC1=C2C(=O)OC(=O)C2C2(CC3CCC2(C)C3(C)C)c2sc(C)cc21 (stereo not shown) [(95)]	0.53	540	11	–
CCCCC12CC3CC(C1)C1(c4c(OC)cc(OC)cc4C(c4ccccc4)=C4C(=O)N(C(C)(C)C#N)C(=O)C41)C(C3)C2 (stereo not shown) [(17)]	0.49	550	48	T1/2 [7]: 188 h
CNC(=O)CN1C(=O)C2=C(C)c3cc([N+](=O)[O-])sc3C3(C4CC5CC(C4)CC3C5)C2C1=O (stereo not shown) [(11)]	0.61	525	39	–
CC1=C2C(=O)N(CC#N)C(=O)C2C2(c3sccc31)C1CC3CC(C1)CC2C3 (stereo not shown) [(2)]	0.83	553	46	Fading speed [6]: 26 s; T1/2 [7]: 182 h; Initial color density [5]: 0.64; λmax [5]: 562 nm; T1/2 [5]: 50 h
COC12CC3CC(C1)C1(c4oc5ccccc5c4C(C)=C4C(=O)N(CC(=O)OC(C)(C)CCC#N)C(=O)C41)C(C3)C2 (stereo not shown) [(14)]	0.82	490	42	Initial color density [5]: 0.63; λmax [5]: 500 nm; T1/2 [5]: 42 h
CC1=C2C(=O)N(c3ccc(C)cc3)C(=O)C2C2(CC3CCC2C3)c2sc3ccccc3c21 (stereo not shown) [(98)]	–	513	11	–
CC1=C2C(=O)N(CCc3ccc4ccccc4c3)C(=O)C2C2(CC3CCC2C3)c2sc(Br)cc21 (stereo not shown) [(3)]	0.42	535	13	Fading speed [6]: 71 s; T1/2 [7]: 77 h
CCOP(=O)([O-])Cc1cc(C(C)(C)C)c(O)c(C(C)(C)C)c1.CCOP(=O)([O-])Cc1cc(C(C)(C)C)c(O)c(C(C)(C)C)c1.[Ni+2] [Irgastab 2002]	–	–	–	T1/2 [1]: 147 h; T1/2 [2]: 176 h
CCC(C(=O)OCCc1ccc2ccccc2c1)N1C(=O)C2=C(C)c3ccsc3C3(C4CC5CC(C4)CC3C5)C2C1=O (stereo not shown) [(5)]	0.51	520	24	Fading speed [6]: 58 s; Initial color density [5]: 0.4; λmax [5]: 520 nm; T1/2 [5]: 31 h
COC(=O)C(C)N1C(=O)C2=C(c3ccccc3)c3ccoc3C3(C4CC5CC3CC(Cl)(C5)C4)C2C1=O (stereo not shown) [(12)]	0.79	560	31	T1/2 [7]: 160 h
CCCCN(CCCC)C(=S)[S-].CCCCN(CCCC)C(=S)[S-].[Ni+2] [Rylex NBC]	–	–	–	T1/2 [1]: 158 h; T1/2 [2]: 190 h
COCCOCN1C(=O)C2=C(C)c3c(oc4ccccc34)C3(C4CC5CC(F)(C4)CC3(F)C5)C2C1=O (stereo not shown) [(16)]	0.84	492	31	–
CCN1C(=O)C2=C(C)c3ccsc3C3(C4CC5CC(C4)CC3C5)C2C1=O (stereo not shown) [(X), reference compound]	0.7	530	3	–
CCN1C(=O)C2=C(C)c3cc(OC)c(OC)c(OC)c3C3(CC4CCC3C4)C2C1=O (stereo not shown) [(99)]	0.24	510	8	–
CCn1c2c(c3ccccc31)C(C)=C1C(=O)OC(=O)C1C21C2CCC(C2)C1(C)C (stereo not shown) [(94)]	0.49	546	12	–
COc1ccc2c3c(sc2c1)C1(C2CC4CC(C2)CC1C4)C1C(=O)N(CCl)C(=O)C1=C3C (stereo not shown) [(9)]	0.59	542	30	–
CCCCC(Cc1cc(C(C)(C)C)c(O)c(C(C)(C)C)c1)(C(=O)OC1CC(C)(C)N(C)C(C)(C)C1)C(=O)OC1CC(C)(C)N(C)C(C)(C)C1 [Tinuvin 144]	–	–	–	T1/2 [1]: 152 h; T1/2 [2]: 182 h
CC1=C2C(=O)N(c3ccccc3)C(=O)C2C2(CC3CCC2C3)c2sc(Br)cc21 (stereo not shown) [(97)]	0.31	506	8	–
CCC1=C2C(=O)N(CC(=O)CCC(=O)CCl)C(=O)C2C2(c3c1sc1ccccc31)C1(F)C(F)(F)C3(F)C(F)(F)C(F)(C1(F)F)C(F)(F)C2(F)C3(F)F (stereo not shown) [(18)]	0.52	519	41	–
